Experimental data as given in US11420984B2, “Arginase inhibitors and methods of use thereof” (AstraZeneca AB, priority 2018, dated 2022).

Key:
Human Arginase 2 = Human Arginase 2 (Homo sapiens (Human), UniProt P78540); assay: Human Arginase 2 enzyme inhibition (thioarginine/DTNB absorbance assay); format: biochemical; conditions: recombinant enzyme 5 nM, 0.5 mM thioarginine premix, 60 min
Procedure: (§1) The thiol group was detected with Ellman's reagent, 5,5′-dithiobis(2-nitrobenzoic acid) (DTNB). DTNB reacts with the thiol to give the mixed disulfide and 2-nitro-5-thiobenzoic acid (TNB) which is quantified by the absorbance of the anion (TNB^2−) at 412 nm.
(§2) The assays were run in clear 384 well plates (Greiner cat no: 781101). […] Two pre-mixes were prepared from reagents thawed immediately before addition to assay plates. Pre-mix one comprised human Arginase 1 or human Arginase 2, at a final concentration of 5 nM and 0.5 mM DTNB in assay buffer, 45 mM HEPES pH7.5, brij 35, 0.045% (w/v) and 100 μM MnCl2. Pre-mix two comprised freshly thawed 0.5 mM thioarginine in assay buffer.
(§3) Assay plates were centrifuged prior to reading absorbance at 412 nm in a Pherastar multi-mode plate reader to collect data at time point 0 (T0). The plates were incubated at room temperature for 60 min prior to reading again to collect data at time point 1 (T1). Data is derived by subtracting the A412 signal measured at T0 (time point 0) from that measured at T1 (time point 1). The data was transformed to % effect using the equation: Compound % effect=100*[(X−min)/(max−min)], where X represents the normalized value for the compound based on the Min (vehicle) and Max (reference compound) inhibition control.

Human Arginase 1 = Human Arginase 1 (Homo sapiens (Human), UniProt P05089); assay: Human Arginase 1 enzyme inhibition (thioarginine/DTNB absorbance assay); format: biochemical; conditions: recombinant enzyme 5 nM, 0.5 mM thioarginine premix, 60 min
Procedure: as §1, §2, §3

Chain of Human Arginase 1 (P05089 whole entry): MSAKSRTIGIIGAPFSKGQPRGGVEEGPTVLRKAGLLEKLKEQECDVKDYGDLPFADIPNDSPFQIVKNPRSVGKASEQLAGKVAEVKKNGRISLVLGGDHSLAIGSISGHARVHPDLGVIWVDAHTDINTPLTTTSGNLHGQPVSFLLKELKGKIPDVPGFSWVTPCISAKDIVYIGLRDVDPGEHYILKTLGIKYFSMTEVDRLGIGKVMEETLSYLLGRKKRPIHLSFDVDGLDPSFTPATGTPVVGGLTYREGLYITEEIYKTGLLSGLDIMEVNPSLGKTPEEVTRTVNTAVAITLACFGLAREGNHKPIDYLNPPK
Chain of Human Arginase 2 (P78540 23-354): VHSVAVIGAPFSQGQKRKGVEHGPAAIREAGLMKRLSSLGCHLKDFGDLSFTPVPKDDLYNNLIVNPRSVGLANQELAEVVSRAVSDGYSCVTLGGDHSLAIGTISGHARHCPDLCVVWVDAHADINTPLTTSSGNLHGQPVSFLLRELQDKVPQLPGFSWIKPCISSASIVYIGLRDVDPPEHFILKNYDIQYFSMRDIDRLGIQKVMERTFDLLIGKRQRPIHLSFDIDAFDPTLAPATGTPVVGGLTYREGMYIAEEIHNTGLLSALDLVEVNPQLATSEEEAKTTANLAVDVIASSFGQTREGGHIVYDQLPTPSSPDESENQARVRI

Structure (SMILES)	IC50 (Human Arginase 2) [nM]	IC50 (Human Arginase 1) [nM]
O=C(O)[C@@]1(CCCCB(O)O)CCCN1 [Example 1, (R)-2-(4-boronobutyl)pyrrolidine-2-carboxylic acid]	23000	14700
O=C(O)[C@@]1(CCCCB(O)O)C[C@H](O)CN1 [Example 2, (2R,4S)-2-(4-boronobutyl)-4-hydroxypyrrolidine-2-carboxylic acid]	21400	26600
O=C(O)[C@@]1(CCCCB(O)O)C[C@@H](O)CN1 [Example 3, (2R,4R)-2-(4-boronobutyl)-4-hydroxypyrrolidine-2-carboxylic acid]	10400	4550
C[C@H](N)C(=O)N[C@H]1CN[C@@](CCCCB(O)O)(C(=O)O)C1 [Example 8, (2R,4R)-4-((S)-2-aminopropanamido)-2-(4-boronobutyl)pyrrolidine-2-carboxylic acid]	560	610
CC(C)[C@@H](N)C(=O)N[C@H]1CN[C@@](CCCCB(O)O)(C(=O)O)C1 [Example 10, (2R,4R)-4-((R)-2-amino-3-methylbutanamido)-2-(4-boronobutyl)pyrrolidine-2-carboxylic acid]	4770	3770
CC(C)(C)[C@H](N)C(=O)N[C@H]1CN[C@@](CCCCB(O)O)(C(=O)O)C1 [Example 11, (2R,4R)-4-((S)-2-amino-3,3-dimethylbutanamido)-2-(4-boronobutyl)pyrrolidine-2-carboxylic acid]	200	210
O=C(N[C@H]1CN[C@@](CCCCB(O)O)(C(=O)O)C1)[C@@H]1CCCN1 [Example 12, (2R,4R)-2-(4-boronobutyl)-4-((S)-pyrrolidine-2-carboxamido)pyrrolidine-2-carboxylic acid]	850	700
CC[C@H](N)C(=O)N[C@H]1CN[C@@](CCCCB(O)O)(C(=O)O)C1 [Example 14, (2R,4R)-4-((S)-2-aminobutanamido)-2-(4-boronobutyl)pyrrolidine-2-carboxylic acid]	310	260
CC(C)[C@](C)(N)C(=O)N[C@H]1CN[C@@](CCCCB(O)O)(C(=O)O)C1 [Example 21, (2R,4R)-4-[[(2S)-2-amino-2,3-dimethyl-butanoyl]amino]-2-(4-boronobutyl)pyrrolidine-2-carboxylic acid]	680	480
NC[C@H](N)C(=O)N[C@H]1CN[C@@](CCCCB(O)O)(C(=O)O)C1 [Example 22, (2R,4R)-2-(4-boronobutyl)-4-[[(2S)-2,3-diaminopropanoyl]amino]pyrrolidine-2-carboxylic acid]	1320	930
CN[C@H]1CN[C@@](CCCCB(O)O)(C(=O)O)C1 [Example 23, (2R,4R)-2-(4-boronobutyl)-4-(methylamino)pyrrolidine-2-carboxylic acid]	2120	1140
CN[C@H]1CN[C@](CCCCB(O)O)(C(=O)O)C1 [Example 24, (2S,4R)-2-(4-boronobutyl)-4-(methylamino)pyrrolidine-2-carboxylic acid]	10	< 3
CN(C)[C@H]1CN[C@@](CCCCB(O)O)(C(=O)O)C1 [Example 25, (2R,4R)-2-(4-boronobutyl)-4-(dimethylamino)pyrrolidine-2-carboxylic acid]	24600	10800
CN(C)[C@H]1CN[C@](CCCCB(O)O)(C(=O)O)C1 [Example 26, (2S,4R)-2-(4-boronobutyl)-4-(dimethylamino)pyrrolidine-2-carboxylic acid]	150	60
NCCN[C@H]1CN[C@@](CCCCB(O)O)(C(=O)O)C1 [Example 27, (2R,4R)-4-(2-aminoethylamino)-2-(4-boronobutyl)pyrrolidine-2-carboxylic acid]	3320	1430
NCCN[C@H]1CN[C@](CCCCB(O)O)(C(=O)O)C1 [Example 28, (2S,4R)-4-(2-aminoethylamino)-2-(4-boronobutyl)pyrrolidine-2-carboxylic acid]	190	90
